pEC50: −log10 of the molar value.
Tested on: HBV
Experiment: HBV-DNA Antiviral Assay Using HepG2.2.15 Cells
Format: cell-based
Conditions: Hepatitis B virus, HepG2.2.15, 168 h, extracellular HBV DNA by qPCR, day 7
Procedure: The following assay procedure describes the HBV antiviral assay. This assay uses HepG2.2.15 cells, which have been transfected with HBV genome, and extracellular HBV DNA quantification as endpoint. Cell viability is assessed in parallel by measuring the intracellular ATP content using the CellTiter-Glo® reagent from Promega.
On day 0, HepG2.2.15 cells were seeded in 96-well plates at a density of 6.0×10^4 cells/well (0.1 mL/well). The cells were incubated at 37° C. and 5% CO2.
On day 1, the test articles were diluted and added to cell culture wells (8 concentrations, 4-fold dilution, in duplicate). GLS4, Tenofovir and Sorafenib were used as reference compounds. 100 μL of culture medium containing the compounds was added to the plate, and the final total volume per well was 200 μL. The final concentration of DMSO in the culture medium was 0.5%. The plate map of compound treatment is shown below. The cells were cultured at 37° C. and 5% CO2 for 3 days.
On day 4, the plates were refreshed with culture media with compounds.
On day 7, cell viability was assessed using the CellTiter-Glo®, and the cell culture supernatants were collected for determination of HBV DNA by qPCR.
Extracellular DNA was isolated with QIAamp 96 DNA Blood Kit per the manufacturer's manual. HBV DNA was then quantified by qPCR with HBV specific primers and probes as specified in Table 1 using the FastStart Universal MasterMix from Roche on an ABI-7900HT. The PCR cycle program consisted of 95° C. for 10 min, followed by 40 cycles at 95° C. for 15 sec and 60° C. for 1 min.
A DNA standard was prepared by dilution of the pAAV2 HBV1.3 plasmid with concentrations ranging from 10 to 1×10^7 copies/uL and used to generate a standard curve by plotting Ct value vs. the concentration of the HBV plasmid DNA standard. The quantity of HBV DNA in each sample was determined by interpolating from the standard curve.
Cell viability was calculated as follows: % Cell viability=(luminescence value of test sample−average luminescence value of blank)/(average luminescence value of 0.5% DMSO control−average luminescence of blank)×100%. HBV DNA inhibition was calculated as follows: 100-(HBV DNA copy number of test sample−HBV DNA copy number of ETV)/HBV DNA copy number of 0.5% DMSO control−HBV DNA copy number of ETV)×100%. The CC50, EC50 and EC90 values were determined by dose-response curves fitted by GraphPad Prism using “log (agonist) vs. response-Variable slope”.

**Q.** `C[C@@H]1CS(=O)(=O)[C@@H](c2cccs2)CN1C(=O)Nc1ccc(F)c(Cl)c1` [Compound 22, (2R,5R)-N-(3-chloro-4-fluoro-phenyl)-5-methyl-1,1-dioxo-2-(2-thienyl)-1,4-thiazinane-4-carboxamide] was tested. Which pEC50 did it give?
**A.** < 5.30

**Q.** `C[C@H]1CS(=O)(=O)[C@H](c2cccs2)CN1C(=O)c1ccc(Br)c(Cl)c1` [Compound 24, (4-bromo-3-chloro-phenyl)-[(2S,5S)-5-methyl-1,1-dioxo-2-(2-thienyl)-1,4-thiazinan-4-yl]methanone] was tested. Which pEC50 did it give?
**A.** 6.30 to 7.00
